tested on: Phosphorylation of STAT6 in human A549 cells; assay: Phosphorylated STAT6 (pSTAT6) flow cytometry assay in human A549 cells; format: cell-based; conditions: read-out: STAT6 IL4 pSTAT6 assay in A549 cells: Average IC50
Description: Example 3. Phosphorylated STAT6 (pSTAT6) Flow Cytometry Assay in Human A549 Cells
Phosphorylation of STAT6 in human A549 cells was quantitatively measured using flow cytometry technology.

Row | Compound | IC50 [nM]
1 | COc1cc(F)cnc1N1CCN(C(=O)c2cc3c(Cl)cc(C4=CCCN(C(=O)CCn5ccnn5)C4)c(F)c3[nH]2)CC1 [Example I-499] | 10000 to 100000
2 | CN(C)C(=O)c1cc2cc(C3=CCCN(C(=O)C(Cn4ccnn4)c4cccc(CO)c4)C3)ccc2o1 (centres unmarked) [Example I-833] | 100 to 1000
3 | COc1ccccc1-c1cc(C2=CCCN(C(=O)C(C)C)C2)c(F)c2cc(C(=O)N(C)C)oc12 [Example I-1190] | 100 to 1000
4 | CNc1ccc(-c2cc(C3=CCCN(C(=O)CCn4ccnn4)C3)cc3[nH]c(C(=O)N(C)C)cc23)c(OC)c1 [Example I-1051] | > 100000
5 | (S)-5-(1-(2-formyl-1,2,3,4-tetrahydroisoquinoline-3-carbonyl)-1,2,5,6-tetrahydropyridin-3-yl)-7-(2-methoxyphenyl)-N,N-dimethylbenzofuran-2-carboxamide [Example I-805] | > 100000
6 | COc1ccncc1-c1cc(C2=CCCN(C(=O)CCn3ccnn3)C2)c(F)c2[nH]c(C(=O)N3CCN(c4ccc(C5CC5)cc4OC)CC3)cc12 [Example I-481] | < 100
7 | COc1ccccc1-c1cc(C2=CCCN(C(=O)CCn3ccnn3)C2)c(F)c2[nH]c(C(=O)N3CCN(c4nc(OC(F)F)ccc4OC)CC3)cc12 [Example I-490] | > 100000
8 | Cc1[nH]nc2ccc(-c3cc(C4=CCCN(C(=O)CCn5ccnn5)C4)cc4cc(C(=O)N(C)C)oc34)cc12 [Example I-1075] | < 100
9 | Cc1ccc(Cl)c(-c2cc(C3=CCCN(C(=O)CCn4ccnn4)C3)cc3[nH]c(C(=O)N(C)C)cc23)c1 [Example I-1061] | < 100
10 | CN(C)C(=O)c1cc2c(F)c(C3=CCCN(C(=O)CCn4ccnn4)C3)ccc2o1 [Example I-1052] | < 100
11 | COc1ccccc1-c1cc(C2=CCCN(C(=O)CCn3ccnn3)C2)c(F)c2[nH]c(C(=O)N(C)Cc3ccc4c(c3)OCO4)cc12 [Example I-976] | < 100
12 | COc1cc(F)cnc1N1CCN(C(=O)c2cc3c(C4=CCC(N5CCOCC5)CC4)cc(C4=CCCN(C(=O)CCn5ccnn5)C4)c(F)c3[nH]2)CC1 (centres unmarked) [Example I-1153] | < 100
13 | COc1ccccc1-c1cc(C2=CCCN(C(=O)CCn3ccnn3)C2)c(F)c2[nH]c(C(=O)N3CCN(c4cc(C)cn5ncnc45)CC3)cc12 [Example I-950] | < 100
14 | COc1ccccc1-c1cc(C2=CCCN(C(=O)CCn3ccnn3)C2)c(F)c2[nH]c(C(=O)N3CCN(C(C)(C)C)CC3)cc12 [Example I-773] | < 100
15 | COc1ccccc1C(=O)N1CCN(C(=O)c2cc3c(-c4ccccc4OC)cc(C4=CCCN(C(=O)CCn5ccnn5)C4)c(F)c3[nH]2)CC1 [Example I-991] | < 100
16 | COc1cc(F)cnc1N1CCN(C(=O)c2cc3c(/C=C/C4CCCCC4)cc(C4=CCCN(C(=O)CCn5ccnn5)C4)c(F)c3[nH]2)CC1 [Example I-1163] | 100 to 1000
17 | COc1ncccc1-c1cc(C2=CCCN(C(=O)CCn3ccnn3)C2)cc2cc(C(=O)N(C)C)oc12 [Example I-1082] | < 100
18 | CC(=O)N1CCC=C(c2cc(-c3cccc4c3OCCO4)c3cc(C(=O)N(C)C)[nH]c3c2F)C1 [Example I-1095] | < 100
19 | CCc1cnccc1-c1cc(C2=CCCN(C(C)=O)C2)c(F)c2[nH]c(C(=O)N3CCN(c4ncc(F)cc4OC)CC3)cc12 [Example I-706] | 10000 to 100000

Row | Compound | IC50 [nM]
20 | CCc1cc(C)ncc1-c1cc(C2=CCCN(C(=O)CC(=O)O)C2)c(F)c2[nH]c(C(=O)N3Cc4cnn(CC)c4C3)cc12 [Example I-788] | < 100
21 | Cc1ccc(-c2cc(C3=CCCN(C(=O)CCn4ccnn4)C3)cc3cc(C(=O)N(C)C)oc23)c(O)c1 [Example I-853] | < 100
22 | COc1ccccc1-c1cc(C2=CCCN(C(=O)CCn3ccnn3)C2)c(F)c2[nH]c(C(=O)N3CCN(c4cnn5c4CCC5)CC3)cc12 [Example I-1013] | < 100
23 | O=C(CCn1ccnn1)N1CCC=C(c2cc(-c3ccccc3OC3CC3)c3cc(C(=O)N4CCN(c5ncccc5OC5CC5)CC4)[nH]c3c2F)C1 [Example I-477] | < 100
24 | COc1ccccc1-c1cc(C2=CCCN(C(=O)CCn3ccnn3)C2)c(F)c2[nH]c(C(=O)N3CCN(c4ncnc5cccc(F)c45)CC3)cc12 [Example I-929] | < 100
25 | CCc1nc(C)ccc1-c1cc(C(=O)N2CCN(c3ncc(F)cc3OC)CC2)cc2cc(C3=CCCN(C(=O)CCn4cccn4)C3)n(CC3CC3)c12 [Example I-522] | < 100
26 | CN(C)C(=O)c1cc2c(C3CCCCC3)cc([C@H]3CCCN(C(=O)CCn4cccn4)C3)c(F)c2[nH]1 [Example I-840] | < 100
27 | CCOc1c(F)cccc1-c1cc(C2=CCCN(C(=O)CCn3ccnn3)C2)c(F)c2[nH]c(C(=O)N3CCN(c4ncc(F)cc4OC)CC3)cc12 [Example I-643] | < 100
28 | COc1ccccc1-c1cc(C2=CCCN(C(=O)CCn3ccnn3)C2)c(F)c2[nH]c(C(=O)N3CCN(c4c(F)cc(F)cc4OC)CC3)cc12 [Example I-432] | < 100
29 | COc1ccccc1-c1cc(C2=CCCN(C(=O)CCn3ccnn3)C2)c(F)c2[nH]c(C(=O)N3CCN(CC4(C)COC4)CC3)cc12 [Example I-1183] | < 100
30 | COc1cccnc1N1CCN(C(=O)c2cc3c(-c4cn(C)nc4C)cc(C4=CCCN(C(=O)CCn5ccnn5)C4)c(F)c3[nH]2)CC1 [Example I-574] | < 100
31 | CN(C)C(=O)c1cc2c(F)c(C3=CCCN(C(=O)[C@@H]4Cc5ccccc5CN4C=O)C3)ccc2o1 (single isomer, unassigned) [Example I-375] | 100 to 1000
32 | COc1cc(C(F)(F)F)cnc1N1CCN(C(=O)c2cc3c(-c4cnc5ccccc5c4OC)cc(C4=CCCN(C(=O)CCn5ccnn5)C4)c(F)c3[nH]2)CC1 [Example I-446] | 1000 to 10000
33 | COc1cc(F)c(F)cc1-c1cc(C2=CCCN(C(=O)CCn3ccnn3)C2)c(F)c2[nH]c(C(=O)N3CCN(C4CC4)CC3)cc12 [Example I-604] | < 100
34 | Methyl 5-(3-(5-(2-(dimethylcarbamoyl)benzofuran-5-yl)-1,2,3,6-tetrahydropyridine-1-carbonyl)-2-formyl-1,2,3,4-tetrahydroisoquinolin-5-yl)pent-4-ynoate [Example I-802] | < 100
35 | CN(C)C(=O)c1cc2cc(C3=CCCN(C(=O)CCc4nccs4)C3)ccc2o1 [Example I-815] | 100 to 1000
36 | COc1ccccc1-c1cc(C2=CCCN(C(=O)CCn3ccnn3)C2)c(F)c2[nH]c(C(=O)N3CCN(c4ccc5c(c4)C=NCC5)CC3)cc12 [Example I-918] | < 100
37 | C#Cc1cc(C2=CCCN(C(=O)CCn3ccnn3)C2)cc2cc(C(=O)N(C)C)oc12 [Example I-373, 5-(1-(3-(1H-1,2,3-triazol-1-yl)propanoyl)-1,2,5,6-tetrahydropyridin-3-yl)-7-ethynyl-N,N-dimethylbenzofuran-2-carboxamide] | 100 to 1000

Now from value to compound:

Row | IC50 [nM] | Compound
38 | < 100 | COc1cccc(N2CCN(C(=O)c3cc4c(-c5cnccc5OC)cc(C5=CCCN(C(=O)CCn6ccnn6)C5)c(F)c4[nH]3)CC2)n1 [Example I-440]
39 | < 100 | Cc1cc(F)ccc1-c1cc(C2=CCCN(C(=O)CCn3ccnn3)C2)cc2cc(C(=O)N(C)C)oc12 [Example I-1083]
40 | < 100 | COc1ccccc1-c1cc(C2=CCCN(C(=O)CCn3ccnn3)C2)c(F)c2[nH]c(C(=O)N3CCN(c4ncnc5ncn(C)c45)CC3)cc12 [Example I-920]
41 | < 100 | COC(=O)C1CN(C(=O)c2cc3c(-c4ccccc4OC)cc(C4=CCCN(C(=O)CCn5ccnn5)C4)c(F)c3[nH]2)CC1C (centres unmarked) [Example I-998]
42 | < 100 | COc1cc(F)cnc1N1CCN(C(=O)c2cc3c(C4=CC(=O)CC4)cc(C4=CCCN(C(=O)CCn5ccnn5)C4)c(F)c3[nH]2)CC1 [Example I-1116]
43 | < 100 | COc1ccccc1-c1cc(C2=CCCN(C(=O)CCn3ccnn3)C2)c(F)c2[nH]c(C(=O)N3CCN(c4ccn5nc(C)nc5c4)CC3)cc12 [Example I-919]
44 | < 100 | COc1cccnc1N1CCN(C(=O)c2cc3c(C4CCCCC4)cc(C4=CCCN(C(=O)CCn5ccnn5)C4)c(F)c3[nH]2)CC1 [Example I-579]
45 | < 100 | CN(C)C(=O)c1cc2cc(C3=CCCN(C(=O)CCn4ccnn4)C3)cc(NCc3ccccc3C3CC3)c2o1 [Example I-878]
46 | < 100 | CCOc1cccnc1N1CCN(C(=O)c2cc3c(-c4ccccc4OC)cc(C4=CCCN(C(=O)CCn5ccnn5)C4)c(F)c3[nH]2)CC1 [Example I-335]
47 | < 100 | COc1ccccc1-c1cc(C2=CCCN(C(=O)CCn3ccnn3)C2)c(F)c2[nH]c(C(=O)N3CCN(c4cc(C(F)(F)F)ccn4)CC3)cc12 [Example I-935]
48 | < 100 | COc1cc(F)ccc1-c1cc(C2=CCCN(C(=O)CCn3ccnn3)C2)c(F)c2[nH]c(C(=O)N3CCN(c4ncc(F)cc4OC)CC3)cc12 [Example I-613]
49 | < 100 | COc1cc(F)cnc1N1CCN(C(=O)c2cc3c(-c4cccc(-n5nc(C)cc5C)c4)cc(C4=CCCN(C(=O)CCn5ccnn5)C4)c(F)c3[nH]2)CC1 [Example I-620]
50 | < 100 | COc1cc(F)cnc1N1CCN(C(=O)c2cc3c(-c4cc(C)ncc4C)cc(C4=CCCN(C(=O)CCn5ccnn5)C4)c(F)c3[nH]2)CC1 [Example I-646]
51 | < 100 | CNc1ccc(-c2cc(C3=CCCN(C(=O)C4Cc5c(N)cccc5CN4C=O)C3)cc3cc(C(=O)N(C)C)oc23)c(OC)c1 (centres unmarked) [Example I-1063]
52 | < 100 | CCc1ccncc1-c1cc(C(=O)N2Cc3cnn(C)c3C2)cc2cc(C3=CCCN(C(=O)CCn4ccnn4)C3)n(CC3CC3)c12 [Example I-727]
53 | < 100 | CCC1CN(C)CCC1c1cc(C2=CCCN(C(=O)CCn3ccnn3)C2)c(F)c2[nH]c(C(=O)N3CCN(c4ncc(F)cc4OC)CC3)cc12 (centres unmarked) [Example I-781]
54 | < 100 | COc1cc(F)cnc1N1CCN(C(=O)c2cc3c(C4CN(C)C4)cc(C4=CCCN(C(=O)CCn5ccnn5)C4)c(F)c3[nH]2)CC1 [Example I-785]
55 | < 100 | CCc1cc(C)ncc1-c1cc(C2=CCCN(C(=O)CCn3ccnn3)C2)c(F)c2[nH]c(C(=O)N3CCN(c4nc(C)c(F)cc4OC)CC3)cc12 [Example I-737]
56 | < 100 | COc1cccnc1N1CCN(C(=O)c2cc3c(-n4ccc5ccccc54)cc(C4=CCCN(C(=O)CCn5ccnn5)C4)c(F)c3[nH]2)CC1 [Example I-578]

From patent US20250214977A1, “STAT6 INHIBITORS AND USES THEREOF” (Kymera Therapeutics, Inc., priority 2024, published 2025)
